Laboratory results: PubChem BioAssay (NCI)
Values joined by “and” are separate entries in the source; they are usually repeats but may differ in a detail not shown here. Equal values may be shown once.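 The compound was tested at five concentrations on cells cultured in 96-well plates, with a 48-hour exposure period. Abbreviation: GI50, concentration required for 50% inhibition of growth. Definition used: TGI = concentration required for complete inhibition of growth.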

Key:
Assay in all cases: NCI anticancer screen, dose series, 48 h
HOP-18 NSCLC = system: HOP-18 NSCLC
M19-MEL melanoma = system: M19-MEL melanoma
DLD-1 colon = system: DLD-1 colon
LXFL 529 NSCLC = system: LXFL 529 NSCLC
DMS 114 small cell lung = system: DMS 114 small cell lung
DMS 273 small cell lung = system: DMS 273 small cell lung
RXF-631 renal = system: RXF-631 renal
XF 498 CNS = system: XF 498 CNS
MDA-N = system: MDA-N

Row | SMILES | TGI (HOP-18 NSCLC) [µM] | TGI (M19-MEL melanoma) [µM] | TGI (DLD-1 colon) [µM] | TGI (LXFL 529 NSCLC) [µM] | TGI (DMS 114 small cell lung) [µM] | TGI (DMS 273 small cell lung) | TGI (RXF-631 renal) [µM] | TGI (XF 498 CNS) [µM] | TGI (MDA-N) [µM] | GI50 (HOP-18 NSCLC) [µM] | GI50 (DMS 273 small cell lung) [µM] | GI50 (M19-MEL melanoma) [µM] | GI50 (DLD-1 colon) [µM] | GI50 (LXFL 529 NSCLC) [µM] | GI50 (DMS 114 small cell lung) [µM] | GI50 (RXF-631 renal) [µM]
1 | N=c1nnc(=O)c2c(s1)-n1ncc(C(=O)O)c1NN2 | > 100 | > 100 | > 100 | > 100 | > 100 |  |  |  |  |  |  |  |  |  |  | 
2 | CN(C)C(N)=NC#N | > 100 | > 100 | > 100 | > 100 | > 100 | > 100 µM | > 100 |  |  |  |  |  |  |  |  | 
3 | C(CCC[Te][Te]CCCCCCOC1CCCCO1)CCOC1CCCCO1 (configuration not stated) | 51.4 |  | 45.8 | 21.1 | 25.5 |  |  | 21.9 |  |  |  |  |  |  |  | 
4 | CN1CCCN(C)C1c1cc([N+](=O)[O-])ccc1O |  |  |  |  |  |  |  |  | > 100 |  |  |  |  |  |  | 
5 | CCC(=O)C(C)C1=Nc2nnc(CCCCCCCc3nnc4n3C(=O)C(C(C)C(=O)CC)=N4)n2C1=O (configuration not stated) | > 100 | > 100 |  | > 100 | > 100 |  |  | > 100 |  |  |  |  |  |  |  | 
6 | C(=N\OCc1ccccc1)/c1ncccc1C1OCCO1 | > 100 | > 100 | > 100 | > 100 | > 100 | > 100 µM |  |  |  |  |  |  |  |  |  | 
7 | CC1(C)OC(=O)C=C([O-])O1.CC1(C)OC(=O)C=C([O-])O1.O=S(=O)([O-])c1ccc([O-])c2ncccc12.O=S(=O)([O-])c1ccc([O-])c2ncccc12.[Ti+4] | > 100 | > 100 | > 100 | > 100 | > 100 | > 100 µM |  |  |  | 26 | > 100 | > 100 | > 100 | 67.1 | > 100 | 
8 | O=C1C=C(Br)C(=O)C12CCc1ccccc12 (configuration not stated) | 16.1 | 36.5 | 28.8 | 13.2 | 45.2 | 37.8 µM |  | 28.8 | 38 |  |  |  |  |  |  | 
9 | COC(=O)c1sc(C(=O)OC)c2c1CSC2 | > 100 | > 100 | > 100 | > 100 | > 100 | > 100 µM | > 100 | 81.6 | > 100 |  |  |  |  |  |  | 
10 | CC(C)c1ccc(/C(C(=O)O)=C(\O)C(=O)O)cc1 |  |  |  |  |  |  |  |  | > 100 |  |  |  |  |  |  | 
11 | COc1ccc(C(N)=O)cc1N=NN(C)C | > 100 | > 100 | > 100 | > 100 |  | > 100 µM |  |  |  |  |  |  |  |  |  | 
12 | COc1cccc(C(=O)N2CCc3ccccc32)c1OC | > 100 | > 100 |  | > 100 | > 100 | > 100 µM | > 100 | > 100 |  |  |  |  |  |  |  | 
13 | CCNC(=O)C#CC(=O)NCC | > 100 | > 100 | > 64.9 | > 100 | > 100 | > 10 µM and 39.6 µM | > 100 | > 100 |  | > 10 | > 10 | > 10 | > 10 | > 10 | > 10 | > 10
14 | CCCCCCCC(=O)OC(CBr)COC(=O)C(C)(C)C (configuration not stated) | > 100 | > 100 | > 100 | > 100 | > 100 | > 100 µM | > 100 | > 100 |  |  |  |  |  |  |  | 
15 | OCCSCc1ccccc1 |  |  |  |  |  |  |  |  | > 100 |  |  |  |  |  |  | 
16 | O=c1cc2ccccc2nn1Cc1ccccc1Cl | > 100 | > 100 | > 100 |  | > 100 | > 100 µM |  | > 100 |  |  |  |  |  |  |  | 
17 | Cc1c(C(=O)NCCO)[n+](=O)c2cc(Cl)ccc2n1[O-] | > 100 | > 100 | > 100 | > 100 | > 100 | > 100 µM |  |  |  |  |  |  |  |  |  | 
